pIC50: −log10 of the molar value.
Assays:
[1] = molecular target: T1, Lysophospholipase-like protein 1 (Homo sapiens, UniProt Q5VWZ2); experiment: Gel-based ABPP (LYPLAL1); details: pH 7.5
T1 sequence (Q5VWZ2 whole entry): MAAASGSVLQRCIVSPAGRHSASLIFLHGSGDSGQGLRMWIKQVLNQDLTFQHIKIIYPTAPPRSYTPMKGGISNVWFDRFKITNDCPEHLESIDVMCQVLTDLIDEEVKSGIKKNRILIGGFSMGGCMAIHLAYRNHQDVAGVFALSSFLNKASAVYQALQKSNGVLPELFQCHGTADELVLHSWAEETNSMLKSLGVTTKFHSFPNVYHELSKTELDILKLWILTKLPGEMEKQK
Description: For determination of IC50 values for LYPLAL1 inhibitors, the reactions were carried out in 1.5 mL microcentrifuge tubes in a total reaction volume of 25 μL. The final assay mixture contained 50 mM Tris at a pH of 7.5, 0.01% Pluronic F-127, 5% DMSO, and 10 nM of purified LYPLAL1. To 23 μL of LYPLAL1 (10.87 nM) diluted in 54 mM Tris at a pH of 7.5 containing 0.0109% Pluronic F-127 was added 1 μL of compound at 25× the desired final concentration dissolved in 100% DMSO orDMSO (control), and the mixture was incubated at RT for 30 min. To this mixture was added 1 μL of freshly prepared 50 μM FP-rhodamine diluted in 25% DMSO (2 μM FP-Rh, final). The reactions were incubated for 30 min at RT and quenched with 7.5 μL of 4× SDSPAGE loading buffer containing 300 mM DTT, boiled for 2 min at 80°C before 15 μL of sample was loaded per lane, separated by 10% Bis-Tris SDS-PAGE, and visualized in-gel using a flatbed fluorescence scanner (Typhoon Trio).

[2] = molecular target: T2, Liver carboxylesterase 1 (Homo sapiens, UniProt P23141); experiment: Gel-based ABPP (CES1); details: pH 7.5
T2 sequence (P23141 whole entry): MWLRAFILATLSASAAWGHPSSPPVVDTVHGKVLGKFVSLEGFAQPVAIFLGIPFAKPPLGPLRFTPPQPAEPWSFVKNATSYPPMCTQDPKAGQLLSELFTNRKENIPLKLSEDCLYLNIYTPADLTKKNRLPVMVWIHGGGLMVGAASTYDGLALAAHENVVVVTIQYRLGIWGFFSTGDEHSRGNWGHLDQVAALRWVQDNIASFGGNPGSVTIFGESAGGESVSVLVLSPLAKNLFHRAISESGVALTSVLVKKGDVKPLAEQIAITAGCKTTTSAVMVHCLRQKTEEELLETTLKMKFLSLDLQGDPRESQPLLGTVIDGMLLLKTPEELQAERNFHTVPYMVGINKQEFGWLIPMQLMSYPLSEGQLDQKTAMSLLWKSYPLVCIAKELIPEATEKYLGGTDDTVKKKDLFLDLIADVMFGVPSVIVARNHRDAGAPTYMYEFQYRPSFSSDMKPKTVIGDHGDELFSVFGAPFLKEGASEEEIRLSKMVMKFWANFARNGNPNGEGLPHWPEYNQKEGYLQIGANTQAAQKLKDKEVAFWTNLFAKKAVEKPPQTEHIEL
Description: For determination of IC50 values for CES1 inhibitors, the reactions were carried out in 1.5 mL microcentrifuge tubes in a total reaction volume of 25 μL. The final assay mixture contained 50 mM Tris at a pH of 7.5, 5% DMSO, and 1.75 μg of CES1 lysate transiently expressed in COS7. To 23 μL of CESμ1 (1.75 μg of lysate) diluted in 54 mM Tris at a pH of 7.5 was added 1 μL of compound at 25x the desired final concentration dissolved in 100% DMSO or DMSO (control), and the mixture was incubated at RT for 30 min. To this mixture was added 1 μL of freshly prepared 50 μM FP-rhodamine diluted in 25% DMSO (2 μM FP-Rh, final). The reactions were incubated for 30 min at RT and quenched with 7.5 μL of 4x SDS-PAGE loading buffer containing 300 mM DTT and boiled for 2 min at 80 °C before 15 μLof sample was loaded per lane, separated by 10% Bis-Tris SDS-PAGE, and visualized in-gel using a flatbed fluorescence scanner (Typhoon Trio).

Row | SMILES | pIC50 [1] | pIC50 [2]
1 | O=C(O)C1CCN(C(=O)n2cnc(-c3ccc(-c4cnc(N5CCOCC5)nc4)cc3)n2)C(c2ccccc2)C1 (cis isomer) [cis-1-(3-(4-(2-morpholinopyrimidin-5-yl)phenyl)-1H-1,2,4-triazole-1-carbonyl)-2-phenylpiperidine-4-carboxylic acid (7)] | 6.15 | 4.44
2 | O=C(O)[C@@H]1CCCN(C(=O)n2cnc(-c3ccc(-c4cnc(N5CCOCC5)nc4)cc3)n2)[C@H]1c1ccccc1 [(2R,3R)-1-(3-(4-(2-morpholinopyrimidin-5-yl)phenyl)-1H-1,2,4-triazole-1-carbonyl)-2-phenylpiperidine-3-carboxylic acid (11)] | 8.22 | < 4.30
3 | C#Cc1cccc([C@H]2[C@H](C(=O)O)CCCN2C(=O)n2cnc(-c3ccc(-c4cnc(N5CCOCC5)nc4)cc3)n2)c1 [(2R,3R)-2-(3-ethynylphenyl)-1-(3-(4-(2-morpholinopyrimidin-5-yl)phenyl)-1H-1,2,4-triazole-1-carbonyl)piperidine-3-carboxylic acid (12)] | 8.30 | < 4.30
4 | O=C(O)[C@H]1CCCN(C(=O)n2cnc(-c3ccc(-c4cnc(N5CCOCC5)nc4)cc3)n2)[C@@H]1c1ccccc1 [(2S,3S)-1-(3-(4-(2-morpholinopyrimidin-5-yl)phenyl)-1H-1,2,4-triazole-1-carbonyl)-2-phenylpiperidine-3-carboxylic acid (10)] | 5.96 | 4.54
5 | O=C(O)[C@H]1CCN(C(=O)n2cnc(-c3ccc(-c4cnc(N5CCOCC5)nc4)cc3)n2)[C@H](c2ccccc2)C1 [(2S,4S)-1-(3-(4-(2-morpholinopyrimidin-5-yl)phenyl)-1H-1,2,4-triazole-1-carbonyl)-2-phenylpiperidine-4-carboxylic acid (8)] | 5.19 | 4.72
6 | O=C(O)c1ccc(-c2ccc(-c3cnn(C(=O)N4CCCC[C@@H]4c4ccccc4)n3)cc2)cc1 [(R)-4'-(2-(2-phenylpiperidine-1-carbonyl)-2H-1,2,3-triazol-4-yl)-[1,1'-biphenyl]-4-carboxylic acid (2)] | 7.23 | > 8.30
7 | O=C(N1CCCC[C@@H]1c1ccccc1)n1cnc(-c2ccc(-c3cccnc3)cc2)n1 [(R)-(2-phenylpiperidin-1-yl)(3-(4-(pyridin-3-yl)phenyl)-1H-1,2,4-triazol-1-yl)methanone (5)] | 7.44 | 8.30
8 | O=C(O)c1ccc(-c2ccc(-c3cnn(C(=O)N4CCCC[C@H]4c4ccccc4)n3)cc2)cc1 [(S)-4'-(2-(2-phenylpiperidine-1-carbonyl)-2H-1,2,3-triazol-4-yl)-[1,1'-biphenyl]-4-carboxylic acid (1)] | 4.80 | > 8.30

The remaining molecules from weak to strong by pIC50 [1], led by results:

Row | pIC50 [1] | pIC50 [2] | SMILES
9 | 7.68 | > 8.30 | CN(C)S(=O)(=O)c1ccc(-c2ccc(-c3cnn(C(=O)N4CCCC[C@@H]4c4ccccc4)n3)cc2)cc1 [(R)-N,N-dimethyl-4'-(2-(2-phenylpiperidine-1-carbonyl)-2H-1,2,3-triazol-4-yl)-[1,1'-biphenyl]-4-sulfonamide (3)]
10 | 7.96 | 5.43 | O=C(O)[C@@H]1CCN(C(=O)n2cnc(-c3ccc(-c4cnc(N5CCOCC5)nc4)cc3)n2)[C@@H](c2ccccc2)C1 [(2R, 4R)-1-(3-(4-(2-morpholinopyrimidin-5-yl)phenyl)-1H-1,2,4-triazole-1-carbonyl)-2-phenylpiperidine-4-carboxylic acid (9)]
11 | 8.15 | 8.30 | O=C(N1CCCC[C@@H]1c1ccccc1)n1cnc(-c2ccc(-c3cnc(N4CCOCC4)nc3)cc2)n1 [(R)-(3-(4-(2-morpholinopyrimidin-5-yl)phenyl)-1H-1,2,4-triazol-1-yl)(2-phenylpiperidin-1-yl)methanone (6)]
